Assays:
Assay type in all cases: cell-based
KRas [1] = target: T1, KRas (Homo sapiens, UniProt P01116, G12C); assay: KRas degradation in H2030 cells by Western blot (data of Table 5); design: host or cells: NCI-H2030; conditions: H2030 cells serum starved 24 hours, KRas immunoblot; for H2030 Degradation at 0.3 uM: treated 24 hours with 0.3 uM; for H2030 Degradation at 1 uM: treated 24 hours with 1 uM; for H2030 Degradation at 3 uM: treated 24 hours with 3 uM
Experimental: Cell Lines, Antibodies, and Reagents. NCI-H2030 (CRL-5914) and SW1573 (CRL-2170) cells were purchased from ATCC. Both cell lines are homozygous for the G12C mutation in KRas. NCI-H2030 cells were cultured in RPMI-1640 medium containing 1% penicillin-streptomycin and 10% fetal bovine serum (FBS). SW1573 cells were cultured in DMEM containing 1% penicillin-streptomycin and 10% FBS. The KRas detection antibody (Cat. No. LS-C175665) was purchased from LifeSpan Biosciences and was used at a dilution of 1:2000. GAPDH was detected using an antibody purchased from Cell Signaling Technology (Cat. No. 5174) and was diluted 1:3000. Secondary anti-mouse and anti-rabbit detection antibodies were purchased from Cell Signaling Technology (Cat. Nos. 7076 and 7074, respectively).
Compound Treatment and Western Blotting of the Data of Table 5. H2030 cells in 12-well plates were serum starved for 24 hours, and then treated with 0.3 uM, 1 uM, and 3 uM of the indicated bifunctional compound, for 24 hours. Cells were lysed in a Cell Signaling Technology Cell Lysis Buffer (Cat. No. #9803) supplemented with protease inhibitors, and proteins were separated by SDS-PAGE. KRas was detected by immunoblotting using the LSBio antibody (Cat. No. LS-C175665).
DC50 is the half-maximal degradation concentration—i.e., the concentration at which 50% degradation is observed. DMax is the maximum degradation efficacy is achieved—i.e., the maximal degradation observed) degradation data.

KRas [2] = target: T1, KRas; assay: KRas degradation in NCI-H2030 cells by Western blot, normalized to GAPDH (data of Table 14); design: host or cells: NCI-H2030; conditions: for Dmax: NCI-H2030
Method in brief: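 KRas/GAPDH band ratio vs DMSO lane gives % degradation; values under 25% were estimated visually, the rest quantitated. Cells are G12C homozygous, serum-free for 24 h, then dosed at 0.3/1/3 μM (0.1% DMSO). VHL-based compounds 24 h, others 72 h.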

KRas [3] = target: T1, KRas; assay: KRas degradation in SW1573 cells by Western blot, normalized to GAPDH (data of Table 14)
Method in brief: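 SW1573 cells, homozygous for the KRas G12C mutation and maintained in DMEM with 10% FBS and 1% penicillin-streptomycin, were seeded in 12-well plates, allowed to attach overnight at 37° C. under 5% CO2, then serum-starved for 24 hours before compound exposure. KRas levels were measured by Western blot, normalized to GAPDH, and compared with DMSO controls to give percent degradation, DC50 and Dmax.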

| H2030 Degradation at 0.3 uM (KRas [1]) | H2030 Degradation at 1 uM (KRas [1]) | H2030 Degradation at 3 uM (KRas [1]) | Percent Degradation at Indicated Concentration (μM) (KRas [2]; H2030 cells, 0.3 μM) | Percent Degradation at Indicated Concentration (μM) (KRas [2]; H2030 cells, 1 μM) | Percent Degradation at Indicated Concentration (μM) (KRas [2]; H2030 cells, 3 μM) | Dmax (KRas [2]; H2030 cells) [%] | DC50 (KRas [3]; SW1573 cells) [nM] | Dmax (KRas [3]; SW1573 cells) [%] | Percent Degradation at Indicated Concentration (μM) (KRas [3]; SW1573 cells, 0.01 μM) | Percent Degradation at Indicated Concentration (μM) (KRas [3]; SW1573 cells, 0.03 μM) | Percent Degradation at Indicated Concentration (μM) (KRas [3]; SW1573 cells, 0.1 μM) | Percent Degradation at Indicated Concentration (μM) (KRas [3]; SW1573 cells, 0.3 μM) | Percent Degradation at Indicated Concentration (μM) (KRas [3]; SW1573 cells, 1 μM) | DC50 (KRas [2]; H2030) [nM] | Percent Degradation at Indicated Concentration (μM) (KRas [2]; H2030, 0.03 μM) | Percent Degradation at Indicated Concentration (μM) (KRas [2]; H2030, 0.1 μM) | Percent Degradation at Indicated Concentration (μM) (KRas [2]; H2030, 0.3 μM) | Percent Degradation at Indicated Concentration (μM) (KRas [2]; H2030, 1 μM) | Percent Degradation at Indicated Concentration (μM) (KRas [2]; H2030, 3 μM) | Compound | also measured |
| --- | --- | --- | --- | --- | --- | --- | --- | --- | --- | --- | --- | --- | --- | --- | --- | --- | --- | --- | --- | --- | --- |
|  |  |  | C (Percent Degradation: C ≤ 35) | C (Percent Degradation: C ≤ 35) | C (Percent Degradation: C ≤ 35) | ≤ 35 | < 100 | 35 to 70 | C (Percent Degradation: C ≤ 35) | B (35 < B < 70) | B (35 < B < 70) | B (35 < B < 70) | C (Percent Degradation: C ≤ 35) |  |  |  |  |  |  | C=CC(=O)N1CCN(c2nc(O[C@H](C)CN3CCC(OCCOCC(=O)N[C@H](C(=O)N4C[C@H](O)C[C@H]4C(=O)N[C@@H](C)c4ccc(-c5scnc5C)cc4)C(C)(C)C)CC3)nc3c(F)c(-c4cc(O)cc5ccccc45)c(Cl)cc23)CC1 [compound 398, (2S,4R)-1-((2S)-2-(2-(2-((1-((2R)-2-((4-(4-acryloylpiperazin-1-yl)-6-chloro-8-fluoro-7-(3-hydroxynaphthalen-1-yl)quinazolin-2-yl)oxy)propyl)piperidin-4-yl)oxy)ethoxy)acetamido)-3,3-dimethylbutanoyl)-4-hydroxy-N-((S)-1-(4-(4-methylthiazol-5-yl)phenyl)ethyl)pyrrolidine-2-carboxamide] |  |
|  |  |  |  |  |  |  |  |  |  |  |  |  |  | 100 to 1000 | C (Percent Degradation: C ≤ 35) | C (Percent Degradation: C ≤ 35) | C (Percent Degradation: C ≤ 35) | C (Percent Degradation: C ≤ 35) | C (Percent Degradation: C ≤ 35) | C=CC(=O)N1CCN(c2nc(OCCN(C)CCOCCOCCOCCOCC(=O)N[C@H](C(=O)N3C[C@H](O)C[C@H]3C(=O)N[C@@H](C)c3ccc(-c4scnc4C)cc3)C(C)(C)C)nc3c(F)c(-c4cc(O)cc5ccccc45)c(Cl)cc23)CC1 [compound 473, (2S,4R)-1-((2S)-20-((4-(4-acryloylpiperazin-1-yl)-6-chloro-8-fluoro-7-(3-hydroxynaphthalen-1-yl)quinazolin-2-yl)oxy)-2-(tert-butyl)-18-methyl-4-oxo-6,9,12,15-tetraoxa-3,18-diazaicosanoyl)-4-hydroxy-N-((S)-1-(4-(4-methylthiazol-5-yl)phenyl)ethyl)pyrrolidine-2-carboxamide] | Percent Degradation at Indicated Concentration (μM) (KRas [2]; H2030, 10 μM): C (Percent Degradation: C ≤ 35); Dmax (KRas [2]): ≤ 35%; DC50 (KRas [3]; SW1573): 100 to 1000 nM; Dmax (KRas [3]; SW1573): 35 to 70%; Percent Degradation at Indicated Concentration (μM) (KRas [3]; SW1573, 0.03 μM): C (Percent Degradation: C ≤ 35); Percent Degradation at Indicated Concentration (μM) (KRas [3]; SW1573, 0.1 μM): C (Percent Degradation: C ≤ 35); Percent Degradation at Indicated Concentration (μM) (KRas [3]; SW1573, 0.3 μM): B (35 < B < 70); Percent Degradation at Indicated Concentration (μM) (KRas [3]; SW1573, 1 μM): B (35 < B < 70); Percent Degradation at Indicated Concentration (μM) (KRas [3]; SW1573, 3 μM): B (35 < B < 70); Percent Degradation at Indicated Concentration (μM) (KRas [3]; SW1573, 10 μM): B (35 < B < 70) |
|  |  |  | C (Percent Degradation: C ≤ 35) | C (Percent Degradation: C ≤ 35) | C (Percent Degradation: C ≤ 35) | ≤ 35 | ≥ 1000 | ≤ 35 | C (Percent Degradation: C ≤ 35) | C (Percent Degradation: C ≤ 35) | C (Percent Degradation: C ≤ 35) | C (Percent Degradation: C ≤ 35) | C (Percent Degradation: C ≤ 35) |  |  |  |  |  |  | C=CC(=O)N1CCN(c2nc(O[C@H](C)CN3CCC(OCCOCCOCCOCC(=O)N[C@H](C(=O)N4C[C@H](O)C[C@H]4C(=O)N[C@@H](C)c4ccc(-c5scnc5C)cc4)C(C)(C)C)CC3)nc3c(F)c(-c4cc(O)cc5ccccc45)c(Cl)cc23)CC1 [compound 400, (2S ,4R)-1-((2S)-14-((1-((2R)-2-((4-(4-acryloylpiperazin-1-yl)-6-chloro-8-fluoro-7-(3-hydroxynaphthalen-1-yl)quinazolin-2-yl)oxy)propyl)piperidin-4-yl)oxy)-2-(tert-butyl)-4-oxo-6,9,12-trioxa-3-azatetradecanoyl)-4-hydroxy-N-((S)-1-(4-(4-methylthiazo1-5-yl)phenyl)ethyl)pyrrolidine-2-carboxamide] |  |

Second part, the compound before the results:

| Compound | H2030 Degradation at 0.3 uM (KRas [1]) | H2030 Degradation at 1 uM (KRas [1]) | H2030 Degradation at 3 uM (KRas [1]) | Percent Degradation at Indicated Concentration (μM) (KRas [2]; H2030 cells, 0.3 μM) | Percent Degradation at Indicated Concentration (μM) (KRas [2]; H2030 cells, 1 μM) | Percent Degradation at Indicated Concentration (μM) (KRas [2]; H2030 cells, 3 μM) | Dmax (KRas [2]; H2030 cells) [%] | DC50 (KRas [3]; SW1573 cells) [nM] | Dmax (KRas [3]; SW1573 cells) [%] | Percent Degradation at Indicated Concentration (μM) (KRas [3]; SW1573 cells, 0.01 μM) | Percent Degradation at Indicated Concentration (μM) (KRas [3]; SW1573 cells, 0.03 μM) | Percent Degradation at Indicated Concentration (μM) (KRas [3]; SW1573 cells, 0.1 μM) | Percent Degradation at Indicated Concentration (μM) (KRas [3]; SW1573 cells, 0.3 μM) | Percent Degradation at Indicated Concentration (μM) (KRas [3]; SW1573 cells, 1 μM) | DC50 (KRas [2]; H2030) [nM] | Percent Degradation at Indicated Concentration (μM) (KRas [2]; H2030, 0.03 μM) | Percent Degradation at Indicated Concentration (μM) (KRas [2]; H2030, 0.1 μM) | Percent Degradation at Indicated Concentration (μM) (KRas [2]; H2030, 0.3 μM) | Percent Degradation at Indicated Concentration (μM) (KRas [2]; H2030, 1 μM) | Percent Degradation at Indicated Concentration (μM) (KRas [2]; H2030, 3 μM) | also measured |
| --- | --- | --- | --- | --- | --- | --- | --- | --- | --- | --- | --- | --- | --- | --- | --- | --- | --- | --- | --- | --- | --- |
| CCC(=O)N1CCN(c2nc(NCCC(=O)N(C)CCOCCOCCOCCOCCOCC(=O)N[C@H](C(=O)N3C[C@H](O)C[C@H]3C(=O)N[C@@H](C)c3ccc(-c4scnc4C)cc3)C(C)(C)C)nc3c(F)c(-c4cc(O)cc5ccccc45)c(Cl)cc23)CC1 [compound 7, (2S,4R)-1-((2S)-2-(tert-butyl)-24-((6-chloro-8-fluoro-7-(3-hydroxynaphthalen-1-yl)-4-(4-propionylpiperazin-1-yl)quinazolin-2-yl)amino)-21-methyl-4,22-dioxo-6,9,12,15,18-pentaoxa-3,21-diazatetracosanoyl)-4-hydroxy-N-((1S)-1-(4-(4-methyl-5H-114-thiazol-5-yl)phenyl)ethyl) pyrrolidine-2-carboxamide] | C (C < 25) | C (C < 25) | C (C < 25) |  |  |  |  |  |  |  |  |  |  |  |  |  |  |  |  |  |  |
| CCC(=O)N1CCN(c2nc(NCCC(=O)N(C)CCOCCOCCOCCOCCOc3ccc4c(c3)CN(C3CCC(=O)NC3=O)C4=O)nc3c(F)c(-c4cc(O)cc5ccccc45)c(Cl)cc23)CC1 (stereo not shown) [compound 10, 3-((6-chloro-8-fluoro-7-(3-hydroxynaphthalen-1-yl)-4-(4-propionylpiperazin-1-yl)quinazolin-2-yl)amino)-N-(14-((2-(2,6-dioxopiperidin-3-yl)-1-oxoisoindolin-5-yl)oxy)-3,6,9,12-tetraoxatetradecyl)-N-methylpropanamide] | C (C < 25) | C (C < 25) | C (C < 25) |  |  |  |  |  |  |  |  |  |  |  |  |  |  |  |  |  |  |
| C=CC(=O)N1CCN(c2nc(NCCC(=O)N(C)CCOCCOCCOCCOCC(=O)N[C@H](C(=O)N3C[C@H](O)C[C@H]3C(=O)N[C@@H](C)c3ccc(-c4scnc4C)cc3)C(C)(C)C)nc3c(F)c(-c4cc(O)cc5ccccc45)c(Cl)cc23)CC1 (racemic) [compound 196, (2RS,4SR)-1-((RS)-21-((4-(4-acryloylpiperazin-1-yl)-6-chloro-8-fluoro-7-((SR)-3-hydroxynaphthalen-1-yl)quinazolin-2-yl)amino)-2-(tert-butyl)-18-methyl-4,19-dioxo-6,9,12,15-tetraoxa-3,18-diazahenicosanoyl)-4-hydroxy-N-((RS)-1-(4-(4-methylthiazol-5-yl)phenyl)ethyl)pyrrolidine-2-carboxamide] |  |  |  |  |  |  |  |  |  |  |  |  |  |  | ≥ 1000 | C (Percent Degradation: C ≤ 35) | C (Percent Degradation: C ≤ 35) | C (Percent Degradation: C ≤ 35) | C (Percent Degradation: C ≤ 35) | C (Percent Degradation: C ≤ 35) | Dmax (KRas [2]): ≤ 35%; DC50 (KRas [3]; SW1573): ≥ 1000 nM; Dmax (KRas [3]; SW1573): ≤ 35%; Percent Degradation at Indicated Concentration (μM) (KRas [3]; SW1573, 0.03 μM): C (Percent Degradation: C ≤ 35); Percent Degradation at Indicated Concentration (μM) (KRas [3]; SW1573, 0.1 μM): C (Percent Degradation: C ≤ 35); Percent Degradation at Indicated Concentration (μM) (KRas [3]; SW1573, 0.3 μM): C (Percent Degradation: C ≤ 35); Percent Degradation at Indicated Concentration (μM) (KRas [3]; SW1573, 1 μM): C (Percent Degradation: C ≤ 35); Percent Degradation at Indicated Concentration (μM) (KRas [3]; SW1573, 3 μM): C (Percent Degradation: C ≤ 35) |
